Results reported in patent publication EP3483233A1, “LUBRICANT BASE OIL COMPOSITIONS OF MONO-UNSATURATED DIBASIC ACID ESTERS WITH BRANCHED ALCOHOLS” (ARKEMA FRANCE, priority 2017, dated 2019).
“And” between values parts separate entries of the source, which are not always exact repeats. Equal values may be shown once.

Key:
Type in all cases: physicochemical
[1] = Thin film test, volatile losses (500 µm oil film on steel coupon, forced-draft oven, gravimetric); details: 500 µm thick films at 120°C
From the text: (§1) The exact procedure, used here, has been described in detail by Stoncius, A. et al. in "Volatiles from Thin Film Degradation of Bio-based, Synthetic and Mineral Basestocks", published in Industrial Lubrication & Tribology, 2013, 65 (3) 209-215, 2013, Emerald Group Publishing Edition or by Brazinskiene, D. et al. in "Ester Basestock Vaporisation from Thin Oil Films", published in Lubrication Science, DOI: 10.1002/ls.1372, pp 1-17, 2017, Wiley Edition.
(§2) Briefly, an oil film of 500 µm thickness was coated on steel coupon and heated at given temperature for specific duration in a forced-draft oven. Afterwards, the volatile losses and insoluble residues were measured gravimetrically.
As discussed in the prior-art review, volatility can be successfully evaluated in a thin film test as described by Stoncius, A. et al. in "Volatiles from Thin Film Degradation of Bio-based, Synthetic and Mineral Basestocks" published in Industrial Lubrication & Tribology, 2013, 65 (3) 209-215, Emerald Group Publishing Edition or by Brazinskiene, D. et al. in "Ester Basestock Vaporisation from Thin Oil Films" published in Lubrication Science, DOI: 10.1002/ls.1372, pp 1-17, 2017, Wiley Edition. This thin-film method is much better suited for hydraulic fluid applications than NOACK or other tests, which employ 250°C or similar temperatures, related to engine oil applications. Also, the above method accounts for longer term decomposition reactions due to exposure to metal surfaces and oxidation, which is prevalent in hydraulic applications. Therefore, using the thin-film method short-term vapor losses were measured after 16 hrs and decomposition trends were compared after 36 hrs of testing. Heating temperature of 120°C was selected to compare thin films of α,ω dibasic esters with commercial basestocks. Table 5. Volatile emissions, % w/w from 500 µm thick films of α-ω dibasic esters and commercial basestocks at 120°C

[2] = Pour point and cloud point, cooling regime of ASTM D97; details: for Cloud point, °C: visual inspection during the same run; for low temperature fluidity: result in words
Experimental: Pour points and cloud points were determined using the same thermal cooling regime, as instructed by ASTM D97. The sample sizes were 5 to 15 mL during the measurements.
Cloud points were determined during the same run by visual inspection of the sample appearance at low temperature. The samples were removed from the freezer every 3°C for visual inspection and, if cloudy, meniscus movement with inversion. The pour point resembled the last measurement, at which the meniscus boundary was still moving within 5 seconds of horizontal inversion. All samples were tested in duplicate.
In engine oils and hydraulic fluids, low temperature fluidity is primarily determined by pour points [ASTM D97]. Generally, pour points below -30°C are considered sufficient. Some polymer additives, e.g. "Pour Point Depressants" (PPD), are able to improve low temperature fluidity. […] Therefore, initially pour points and cloud points [ASTM D2500 "Standard Test Method for Cloud Point of Petroleum Products and Liquid Fuels"] of α-ω dibasic esters were evaluated and shown in Table 4.

[3] = Thin film test, oxidative stability (time to insoluble residues and to solidification); details: 500 µm thick films at 120°C; for Vapor loss at solidification: at the duration of full film solidification
From the text: as §1, §2
Therefore, thin films of commercial basestocks and α-ω dibasic esters were compared by exposing their thin films to 120°C as described by Stoncius, A. et al. in "Volatiles from Thin Film Degradation of Bio-based, Synthetic and Mineral Basestocks" published in Industrial Lubrication & Tribology, 2013, 65 (3), 209-215, Emerald Group Publishing Edition or by Brazinskiene, D. et al. in "Ester Basestock Vaporisation from Thin Oil Films" published in Lubrication Science, DOI: 10.1002/ls.1372, pp 1-17, 2017, Wiley Edition.
The thin-film method determines how resistant oil is against formation of insoluble residues during oxidation. Degradation durations until initial formation of solid residues and complete solidification directly relate to oxidative stability.

[4] = Kinematic viscosity with capillary Cannon-Fenske viscometers; Viscosity Index calculated per ASTM D2270; details: for Viscosity Index: calculated per ASTM D2270 from viscosities at 40°C and 100°C; for Viscosity, mm^2/s at 40°C: kinematic viscosity at 40°C; for Viscosity, mm^2/s at 100°C: kinematic viscosity at 100°C
Experimental: Kinematic viscosities at 40°C and 100°C were measured using capillary Cannon-Fenske viscometers per ASTM […]. Viscosity Index (the value, describing the rate of thinning with increasing temperature) was calculated per ASTM D2270.

Row | Compound | Volatile emissions, 16 hrs [1] [% w/w] | Volatile emissions, 36 hrs [1] [% w/w] | Pour point, °C [2] | Cloud point, °C [2] | Full solidification observed [3] [h] | Initial residues observed [3] [h] | Vapor loss at solidification [3] [% w/w] | Viscosity Index [4] | Viscosity, mm^2/s at 40°C [4] | Viscosity, mm^2/s at 100°C [4] [mm^2/s] | low temperature fluidity [2]
1 | 1,9-di(2-ethylhexyl) nonanedioate [26S9, reference compound] | 2.65 | 4.7 | -57 °C | -38 °C | 553 | 367 | 92 | 111 | 10.5 mm^2/s | 2.8 | 
2 | 1,18-di(1-methylheptyl) octadec-9-enedioate [17U18] | 0.87 | 7 | -21 °C | -18 °C | 463 | 343 | 63 | 205 | 21.2 mm^2/s | 5.35 | much poorer low temperature fluidity
3 | 1,18-di(2-butyloctyl) octadec-9-enedioate [48U18] | 1.7 | 9.8 | -54 °C | -48 °C | 320 | 248 | 47 | 163 | 36.09 mm^2/s | 7.09 | 
4 | 1,18-di(2-propylheptyl) octadec-9-enedioate [37U18] | 3.5 | 10.6 | -51 °C | -51 °C | 324 | 248 | 54 | 174 | 28.7 mm^2/s and 28.74 mm^2/s | 6.39 | 
5 | 1,18-di(3,3,5-trimethylhexyl) octadec-9-enedioate [9U18] | 5 | 13.9 | -33 °C | -33 °C | 367 | 344 | 71 | 202 | 28.8 mm^2/s | 6.7 | 
6 | 1,18-di(3-methylbutyl) octadec-9-enedioate [5U18] | 12.6 | 23.7 | -24 °C | -24 °C | 225 | 152 | 66 | 196 | 12.93 mm^2/s | 3.73 | 
7 | 1,18-dimethyl octadec-9-enedioate [1U18] | 9.4 | 25.6 | > +15 °C | > +15 °C | 344 | 248 |  | 204 | 8.68 mm^2/s | 2.85 | much poorer low temperature fluidity
8 | 1-(3,7,11,15-tetra methyl-2-hexadecenyl) - 18-(2-ethylhexyl) octadec-9-enedioate [2026U18] | 6.7 | 13.4 | -66 °C | -63 °C | 176 | 152 | 39 | 175 | 42.54 mm^2/s | 8.3 | 
9 | CCCCCCC(C)OC(=O)CCCCCCCCCCCCCCCCC(=O)OC(C)CCCCCC (stereo not shown) [17S18, 1,18-di(1-methylheptyl) octadecanedioate, reference compound] |  |  | +9 °C | +9 °C |  |  |  | 180 | 22.7 mm^2/s | 5.31 | very problematic low temperature fluidity
10 | CCCCC(CC)COC(=O)CCCCCCCCCCCCCCCCC(=O)OCC(CC)CCCC (stereo not shown) [26S18, 1,18-di(2-ethylhexyl) octadecanedioate, reference compound] |  |  | -9 °C | -9 °C |  |  |  | 194 | 23.9 mm^2/s | 5.71 | very problematic low temperature fluidity
11 | CCCCCCC(CCCC)COC(=O)CCCCCCCC=CCCCCCCCC(=O)OCC(CC)CCCC (stereo not shown) [4826U18, 1-(2-butyloctyl)-18-(2-ethylhexyl)octadec-9-enedioate] | 3.8 | 10.1 | -51 °C | -51 °C | 325 | 248 | 57 | 205 | 28.97 mm^2/s | 6.78 | 
